Several values for one entry are separate records, joined by “and”; a condition that tells them apart may be missing. Equal entries are not always repeated.
Assays:
[1] = test system: Pseudomonas aeruginosa ST111; assay: MIC determination, fixed concentration of sBLI (Examples 27-30); assay type: cell-based; conditions: VIM-2, OXA-395, PDC-3, caMHB, 29.4 μM Zn2+
Description: Antimicrobial susceptibility testing (AST) by broth microdilution (MIC determination) was performed according to The European Committee on Antimicrobial Susceptibility Testing (EUCAST) guidelines (see Reading guide for broth microdilution Version 5.0, 2024: https://www.eucast.org).
For combinations containing meropenem as the antibiotic, Sensititre™ FINMER meropenem 64-0.03 μg/mL plates (Thermo Fischer Diagnostics custom plates; YFINMER) were used in most of the experiments. For other antibiotics (and for meropenem whenever a higher start concentration than 64 μg/mL was needed) sterile clear round bottom polystyrene (non-treated) 96-well microplates (Corning 3788) were used for making serial two-fold dilutions of the antibiotic in cation-adjusted Mueller Hinton II broth (caMHB; Thermo Scientific, T3462, containing 29.4 μM Zn^2+ or MILLIPORE, 90922-500G, containing 5.6 μM Zn^2+), across the columns of the microtiter plate (128-0.06 μg/mL; columns 1-12).
The checkerboard plates were all modified by adding a serine β-lactamase inhibitor (sBLI) at a fixed concentration of 16 μg/mL. Additionally, the zinc chelator was added at various fixed concentrations. […]

[2] = test system: K. pneumoniae K66-45 (NDM-1); assay: MIC determination of meropenem with zinc chelator at varying zinc concentrations in the medium (Example 31); assay type: cell-based, Klebsiella pneumoniae
Description: An experiment was conducted to determine the Minimal Inhibitory Concentration (MIC) of meropenem (MEM) in combination with the zinc chelator according to Example 26 of WO 2018/033719 at varying concentrations of zinc in the medium. The medium was a Mueller Hinton broth from Thermo Fischer. The zinc content was measured as 5.6 μM using ICP-MS. The concentration of zinc in the plasma of healthy animals has been determined to be close to this value. In infectious tissue, the zinc concentration is below the limit of detection (see, for example Bilinskaya et al., Am. Soc. For Microbiology (2020), 58, pages 1-8). Zinc sulfate was then added to this broth to obtain three further concentrations: 15.6 μM, 25.6 μM and 35.6 μM of zinc, keeping all other parameters constant.
As a model bacterial strain for this experiment, the MIC of MEM vs. K. pneumoniae K66-45 (NDM-1) was then determined in broth containing the four concentrations of zinc following the protocol given in Example 1. The EUCAST MIC value for MEM alone (EUCAST: standardization organization for MIC values of antibiotics) is 4-8 μM, meaning that if a bacterial strain is inhibited at lower concentrations than the MIC value, the bacterial strain is sensitive(S) to MEM. Correspondingly, if the bacterial strain is not inhibited at MIC or lower, the strain is resistant (R). If the inhibition is within the MIC range 4-8 μM, the resistance is intermediate (I).

[3] = test system: many strains of Acinetobacter baumannii; conditions: with MEM; cited from earlier work

Compound: CN(C[C@H](O)[C@@H](O)[C@H](O)[C@H](O)CO)C(=O)c1ccc(CN(Cc2ccccn2)Cc2ccccn2)nc1 [zinc chelator]
- Synergy with the zinc chelator observed at concentration ([1]; Example 27, with PIP and AVI 16 μg/mL): 16 µg/mL
- Synergy with the zinc chelator observed at concentration ([1]; Example 28, with PIP and TAZ 16 μg/mL): 16 µg/mL and 8 µg/mL
- sensitivity of the strain ([2]; printed: "at 4-8 μM when used tested at a concentration 4 μM", with MEM): sensitive
- effect against the bacterial strain ([2]; zinc chelator 16 μM with MEM, highest concentration of zinc (35.6 μM)): ineffective
- effect of combination [3]: poor effect
